Data reported in ChEMBL document CHEMBL1201862, “PubChem BioAssay data set” (2004).
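Cultured in 96-well plates, cells were exposed to test compound for 48 hours across five concentrations. The concentration for 50% growth inhibition is given as GI50.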 Active and inactive are the calls of the source. No stated cut-off is given here; in the data, active = GI50 up to about 1.1 µM and inactive = higher.

How the values were obtained:
Assay in all cases: NCI anticancer screen, dose series, 48 h
786-0 = test system: 786-0
A498 = test system: A498
A549 = test system: A549
ACHN = test system: ACHN
BT-549 = test system: BT-549
CCRF-CEM = test system: CCRF-CEM
COLO 205 = test system: COLO 205
EKVX = test system: EKVX
HCC 2998 = test system: HCC 2998
HCT-116 = test system: HCT-116
HL-60 = test system: HL-60
HOP-62 = test system: HOP-62
HOP-92 = test system: HOP-92
HT-29 = test system: HT-29
Hs-578T = test system: Hs-578T
IGROV-1 = test system: IGROV-1
K562 = test system: K562
KM12 = test system: KM12
M14 = test system: M14
MCF7 = test system: MCF7
MDA-N = test system: MDA-N
MOLT-4 = test system: MOLT-4
Malme-3M = test system: Malme-3M
NCI-H226 = test system: NCI-H226
NCI-H23 = test system: NCI-H23
NCI-H460 = test system: NCI-H460
OVCAR-5 = test system: OVCAR-5
OVCAR-8 = test system: OVCAR-8
PC-3 = test system: PC-3
RPMI-8226 = test system: RPMI-8226
RXF 393 = test system: RXF 393
SK-MEL-28 = test system: SK-MEL-28
SK-MEL-2 = test system: SK-MEL-2
SK-MEL-5 = test system: SK-MEL-5
SNB-19 = test system: SNB-19
SNB-75 = test system: SNB-75
SR = test system: SR
SW-620 = test system: SW-620
T47D = test system: T47D
TK-10 = test system: TK-10
U-251 = test system: U-251
UACC-257 = test system: UACC-257
UACC-62 = test system: UACC-62
UO-31 = test system: UO-31
CAKI-1 = test system: CAKI-1
DU-145 = test system: DU-145
HCT-15 = test system: HCT-15
LOX IMVI = test system: LOX IMVI
MDA-MB-231 = test system: MDA-MB-231
MDA-MB-435 = test system: MDA-MB-435
NCI-H522 = test system: NCI-H522
NCI/ADR-RES = test system: NCI/ADR-RES
OVCAR-3 = test system: OVCAR-3
OVCAR-4 = test system: OVCAR-4
SF-268 = test system: SF-268
SF-295 = test system: SF-295
SF-539 = test system: SF-539
SN12C = test system: SN12C

COC(=O)C(Cc1c[nH]c2ccccc12)NC(=O)C(Cc1c[nH]cn1)NC(=O)C1CCC(=O)N1C(=O)OCc1ccccc1 (stereo unspecified)
GI50 (786-0): > 100 µM (inactive) | GI50 (A498): 7.35 µM (inactive) | GI50 (A549): > 100 µM (inactive) | GI50 (ACHN): > 100 µM (inactive) | GI50 (BT-549): > 100 µM (inactive) | GI50 (CCRF-CEM): > 100 µM (inactive) | GI50 (COLO 205): > 100 µM (inactive) | GI50 (EKVX): > 100 µM (inactive) | GI50 (HCC 2998): > 100 µM (inactive) | GI50 (HCT-116): > 100 µM (inactive) | GI50 (HL-60): > 100 µM (inactive) | GI50 (HOP-62): > 100 µM (inactive) | GI50 (HOP-92): > 100 µM (inactive) | GI50 (HT-29): > 100 µM (inactive) | GI50 (Hs-578T): > 100 µM (inactive) | GI50 (IGROV-1): > 100 µM (inactive) | GI50 (K562): > 100 µM (inactive) | GI50 (KM12): > 100 µM (inactive) | GI50 (M14): > 100 µM (inactive) | GI50 (MCF7): > 100 µM (inactive) | GI50 (MDA-N): > 100 µM (inactive) | GI50 (MOLT-4): > 100 µM (inactive) | GI50 (Malme-3M): > 100 µM (inactive) | GI50 (NCI-H226): > 100 µM (inactive) | GI50 (NCI-H23): > 100 µM (inactive) | GI50 (NCI-H460): > 100 µM (inactive) | GI50 (OVCAR-5): > 100 µM (inactive) | GI50 (OVCAR-8): > 100 µM (inactive) | GI50 (PC-3): > 100 µM (inactive) | GI50 (RPMI-8226): > 100 µM (inactive) | GI50 (RXF 393): > 100 µM (inactive) | GI50 (SK-MEL-28): > 100 µM (inactive) | GI50 (SK-MEL-2): > 100 µM (inactive) | GI50 (SK-MEL-5): > 100 µM (inactive) | GI50 (SNB-19): > 100 µM (inactive) | GI50 (SNB-75): > 100 µM (inactive) | GI50 (SR): > 100 µM (inactive) | GI50 (SW-620): > 100 µM (inactive) | GI50 (T47D): 5.13 µM (inactive) | GI50 (TK-10): > 100 µM (inactive) | GI50 (U-251): > 100 µM (inactive) | GI50 (UACC-257): > 100 µM (inactive) | GI50 (UACC-62): > 100 µM (inactive) | GI50 (UO-31): > 100 µM (inactive)

COc1nc(=O)n(C2CC(F)C(CO)O2)cc1C (stereo unspecified)
GI50 (786-0): > 100 µM (inactive) | GI50 (A549): > 100 µM (inactive) | GI50 (ACHN): > 100 µM (inactive) | GI50 (BT-549): > 100 µM (inactive) | GI50 (CAKI-1): > 100 µM (inactive) | GI50 (CCRF-CEM): > 100 µM (inactive) | GI50 (COLO 205): > 100 µM (inactive) | GI50 (DU-145): > 100 µM (inactive) | GI50 (EKVX): > 100 µM (inactive) | GI50 (HCC 2998): > 100 µM (inactive) | GI50 (HCT-116): > 100 µM (inactive) | GI50 (HCT-15): > 100 µM | GI50 (HL-60): > 100 µM (inactive) | GI50 (HOP-62): > 100 µM (inactive) | GI50 (HT-29): > 100 µM (inactive) | GI50 (Hs-578T): > 100 µM (inactive) | GI50 (IGROV-1): > 100 µM (inactive) | GI50 (K562): > 100 µM (inactive) | GI50 (KM12): > 100 µM (inactive) | GI50 (LOX IMVI): > 100 µM (inactive) | GI50 (M14): > 100 µM (inactive) | GI50 (MCF7): > 100 µM (inactive) | GI50 (MDA-MB-231): > 100 µM (inactive) | GI50 (MDA-MB-435): > 100 µM (inactive) | GI50 (MDA-N): > 100 µM (inactive) | GI50 (MOLT-4): > 100 µM (inactive) | GI50 (Malme-3M): > 100 µM (inactive) | GI50 (NCI-H226): > 100 µM (inactive) | GI50 (NCI-H23): > 100 µM (inactive) | GI50 (NCI-H460): > 100 µM (inactive) | GI50 (NCI-H522): > 100 µM (inactive) | GI50 (NCI/ADR-RES): > 100 µM (inactive) | GI50 (OVCAR-3): > 100 µM (inactive) | GI50 (OVCAR-4): > 100 µM (inactive) | GI50 (OVCAR-8): > 100 µM (inactive) | GI50 (RPMI-8226): > 100 µM (inactive) | GI50 (SF-268): > 100 µM (inactive) | GI50 (SF-295): > 100 µM (inactive) | GI50 (SF-539): > 100 µM (inactive) | GI50 (SK-MEL-28): > 100 µM (inactive) | GI50 (SK-MEL-2): > 10 µM (inactive) | GI50 (SK-MEL-5): > 100 µM (inactive) | GI50 (SN12C): > 100 µM (inactive) | GI50 (SNB-19): > 100 µM (inactive) | GI50 (SR): > 100 µM (inactive) | GI50 (SW-620): > 100 µM (inactive) | GI50 (T47D): > 100 µM (inactive) | GI50 (TK-10): > 100 µM (inactive) | GI50 (U-251): > 100 µM (inactive) | GI50 (UACC-257): > 100 µM (inactive) | GI50 (UACC-62): > 100 µM (inactive) | GI50 (UO-31): > 100 µM (inactive)
